Data taken from article PMC11587510, “Aromatic Amino Acid Hydroxylases as Off-Targets of Histone Deacetylase Inhibitors” (ACS Chemical Neuroscience, 2024).
“And” between values parts separate entries of the source, which are not always exact repeats. Equal entries are not always repeated. Where two headings read alike, the source gives them in different places. One block for each molecule: values may come before it.

Key:
[1] = biological target: T1, human TH isoform 1 (TH1) (Homo sapiens, UniProt P07101); assay: TH enzyme activity assay (HPLC, L-DOPA); type: biochemical; settings: best-fit IC50 (± SE), nonlinear regression; N.A. = no activity
T1 construct: Full-length human TH isoform 1 (TH1); His6-ZZ fusion partner (one of the two preparations only) (cleaved yes); made in house; host or cells: E. coli BL21(DE3) pLysS (pET3a) or BL21 CodonPlus (pET-ZZ-1a)
T1 sequence (P07101 1-497 isoform P07101-3): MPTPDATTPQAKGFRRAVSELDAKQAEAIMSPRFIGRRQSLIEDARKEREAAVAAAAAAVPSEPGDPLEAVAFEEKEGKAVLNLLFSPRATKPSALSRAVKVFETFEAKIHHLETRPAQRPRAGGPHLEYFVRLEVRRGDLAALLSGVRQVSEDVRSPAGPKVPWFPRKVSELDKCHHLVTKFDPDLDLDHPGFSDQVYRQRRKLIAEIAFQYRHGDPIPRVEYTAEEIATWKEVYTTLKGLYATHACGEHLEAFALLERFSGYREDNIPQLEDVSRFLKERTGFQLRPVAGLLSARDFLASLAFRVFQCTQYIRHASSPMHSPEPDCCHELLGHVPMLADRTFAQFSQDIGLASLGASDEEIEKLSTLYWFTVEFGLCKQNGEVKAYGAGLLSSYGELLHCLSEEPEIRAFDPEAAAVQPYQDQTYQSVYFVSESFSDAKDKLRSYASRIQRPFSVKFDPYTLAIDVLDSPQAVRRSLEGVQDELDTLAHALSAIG
Experimental: (§1) The activity of purified PAH, TH, TPH1, and TPH2 was measured using high-performance liquid chromatography (HPLC) as previously described.[50],[56],[57]
TH activities were performed in a standard reaction mixture containing 40 mM Hepes (pH 7.0), 0.1 mg/mL catalase, 10 μM ferrous ammonium sulfate, and 50 μM L-Tyr. Compounds were incubated with TH (0.01 mg/mL) in the reaction mixture for 10 min on ice. The enzymatic reaction was initiated by adding 200 μM BH4 and 2 mM DTT (final concentrations) and stopped by precipitation with 2% (v/v) acetic acid in ethanol after 5 min at 37 °C. The product, L-DOPA, was quantified by HPLC utilizing a fluorescence monitor set at 281 and 314 nm for excitation and emission, respectively.
GraphPad Prism (version 10; La Jolla, CA) was used for analyzing the enzyme inhibition data.

[2] = biological target: T2, human PAH (Homo sapiens, UniProt P00439); assay: PAH enzyme activity assay (HPLC, L-Tyr); type: biochemical
T2 construct: Full-length human TH isoform 1 (TH1), human PAH, human TPH2, and doubly truncated human TPH1; made in house; host or cells: E. coli TB1
T2 sequence (P00439 1-452): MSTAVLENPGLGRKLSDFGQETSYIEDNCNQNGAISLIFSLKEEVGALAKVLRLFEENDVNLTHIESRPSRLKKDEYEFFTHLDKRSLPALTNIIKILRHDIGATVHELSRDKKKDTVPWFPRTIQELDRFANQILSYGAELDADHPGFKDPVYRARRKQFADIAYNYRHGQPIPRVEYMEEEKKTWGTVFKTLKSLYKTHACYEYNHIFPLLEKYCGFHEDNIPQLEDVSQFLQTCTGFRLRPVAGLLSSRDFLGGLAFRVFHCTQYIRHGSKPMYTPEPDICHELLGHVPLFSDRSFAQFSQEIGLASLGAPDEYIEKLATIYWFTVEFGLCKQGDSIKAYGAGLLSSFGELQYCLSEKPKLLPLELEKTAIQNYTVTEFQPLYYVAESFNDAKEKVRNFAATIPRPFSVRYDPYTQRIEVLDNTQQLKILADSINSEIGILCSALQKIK

[3] = biological target: T3, human TPH2 (Homo sapiens, UniProt Q8IWU9); assay: TPH2 enzyme activity assay (HPLC); type: biochemical; settings: best-fit IC50 (± SE), nonlinear regression; N.A. = no activity
T3 construct: Full-length human TH isoform 1 (TH1), human PAH, human TPH2, and doubly truncated human TPH1; MBP (cleaved yes); made in house; host or cells: E. coli BL21(DE3)
T3 sequence (Q8IWU9 1-490): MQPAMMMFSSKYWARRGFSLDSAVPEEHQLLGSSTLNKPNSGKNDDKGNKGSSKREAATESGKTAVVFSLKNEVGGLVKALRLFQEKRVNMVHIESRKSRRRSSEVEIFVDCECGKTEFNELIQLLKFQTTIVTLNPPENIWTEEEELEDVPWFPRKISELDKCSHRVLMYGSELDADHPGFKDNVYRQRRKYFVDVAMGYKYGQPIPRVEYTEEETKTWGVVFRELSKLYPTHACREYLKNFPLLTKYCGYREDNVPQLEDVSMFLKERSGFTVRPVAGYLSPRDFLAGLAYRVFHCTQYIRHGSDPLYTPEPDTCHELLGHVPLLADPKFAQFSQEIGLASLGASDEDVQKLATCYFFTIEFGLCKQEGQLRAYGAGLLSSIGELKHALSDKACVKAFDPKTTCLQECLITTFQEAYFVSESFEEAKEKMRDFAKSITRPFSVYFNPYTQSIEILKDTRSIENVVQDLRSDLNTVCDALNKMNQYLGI

[4] = tested on: HDAC 8; settings: human recombinant HDAC, cited from earlier work
[5] = biological target: T4, endogenous PAH (Homo sapiens, UniProt P00439); assay: Cellular thermal shift assay (CETSA) in HepG2 cells; type: cell-based; settings: 50 μM compound, 1 h, vs DMSO
T4 construct: increased melting temperatures (ΔTm) of endogenous PAH; endogenous in cells; host or cells: HepG2
T4 sequence (P00439 1-452): T2 sequence (P00439 1-452)
Experimental: Then, cells were washed, harvested using trypsin, and pelleted by centrifugation. The pellet was washed twice with PBS supplemented with complete EDTA-free protease inhibitor cocktail (Roche) and divided into 14 aliquots of 35 μL containing 800,000 cells. Cells were then frozen in liquid nitrogen and thawed at 25 °C three times, and each aliquot was heated to a defined temperature by applying a gradient between 39 °C and 69 °C in a thermocycler (peQSTAR, PeQlab; 16-well gradient, 54 °C ± 15 °C). After 3 min incubation, aliquots were snap frozen in liquid nitrogen and thawed at 25 °C. Cell lysates were centrifuged at 20,000 g (4 °C) for 20 min. Supernatants were mixed with 5x loading buffer, heated to 70 °C for 5 min and analyzed by Western blotting. Chemoluminescence signals were recorded with a FusionSL, Vilber Lourmat (peQlab) and quantified using FusionCapt Advance FX7 16.01c software. Calculation of ΔTm was conducted using the Boltzmann sigmoidal model in GraphPad prism 7.01.
Cell lysates used for Western blot analysis were prepared as described in the Methods section (Cellular Thermal Shift Assay). […] Chemoluminescence signals were recorded with an FusionSL, Vilber Lourmat (peQlab) and quantified using FusionCapt Advance FX7 16.01c software.

[6] = tested on: HDAC 1; settings: human recombinant HDAC, cited from earlier work
[7] = biological target: T5, doubly truncated human TPH1 (ΔNH102-ΔCOOH402) (Homo sapiens, UniProt P17752); assay: TPH1 enzyme activity assay (HPLC, 5-OH-Trp); type: biochemical; settings: best-fit IC50 (± SE), nonlinear regression; N.A. = no activity
T5 construct: doubly truncated human TPH1 (ΔNH102-ΔCOOH402); made in house; host or cells: E. coli BL21(DE3)
T5 sequence (P17752 102-402, stated change not applied): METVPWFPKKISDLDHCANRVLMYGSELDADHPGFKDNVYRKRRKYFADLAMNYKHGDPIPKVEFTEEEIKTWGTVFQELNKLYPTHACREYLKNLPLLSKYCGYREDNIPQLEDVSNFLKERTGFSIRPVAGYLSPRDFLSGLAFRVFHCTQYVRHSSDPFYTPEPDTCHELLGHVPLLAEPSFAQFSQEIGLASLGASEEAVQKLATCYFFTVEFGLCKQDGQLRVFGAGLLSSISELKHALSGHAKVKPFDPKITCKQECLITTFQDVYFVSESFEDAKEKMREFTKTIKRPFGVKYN

[8] = biological target: T6, TPH1 (Homo sapiens, UniProt P17752); assay: Differential scanning fluorimetry (DSF) thermal stability assay; type: binding; settings: DSF, 50 μM compound
T6 construct: doubly truncated human TPH1 (ΔNH102-ΔCOOH402); made in house; host or cells: E. coli BL21(DE3)
T6 sequence (P17752 102-402): as the sequence (P17752 102-402, stated change not applied) above
Experimental: A fluorescence-based thermal stability assay (differential scanning fluorimetry, DSF) was used for testing the effects of HDIs on the thermal stability of TPH1.
For initial high throughput screening (HTS), compounds were prepared at a concentration of 10 mM (in some cases, 5 mM) in 100% DMSO. Initial HTS screening was performed on TPH1 with and without compounds using a LightCycler 480 Real-Time PCR System (Roche Applied Science). TPH1 was diluted to 0.075 mg/mL in 50 mM Tris pH 8.0, 200 mM NaCl, 0.5 mM TCEP, and 5% glycerol with 5x SYPRO Orange. Compounds were added to a final concentration of 50 μM. Controls with 0.5% DMSO were performed on each 384-well microplate. Unfolding curves were recorded from 20 to 95 °C at a scan rate of 2 °C/min and monitored at excitation = 465 nm and emission = 610 nm. Selected hits were validated further by serial dilution from 250 μM to 122 nM, keeping the DMSO concentration constant at 2%.
DSF data were analyzed using HTSDSF Explorer.[55] Melting temperature (Tm) was calculated from the maximum value of the first derivative of the unfolding curve. ΔTm (Tm with compound–averaged Tm in DMSO controls) was plotted for all validated curves and a threshold of 2 °C was set (typically, cutoff at ΔTm = 3-fold the SD of the Tm of the DMSO control).
Preliminary binding constants (KD) were calculated by fitting data to the equation [drawing 1] where ΔH0 is the enthalpy of the unfolding of the protein in the presence of ligand ([L]), and R is the gas constant.

[9] = tested on: HDAC 6; settings: human recombinant HDAC; ref 6 (10.1002/cmdc.201800238); cited from earlier work
[10] = tested on: AAAHs (PAH, TH, TPH1, TPH2); assay: Enzyme activity assays, statement over all four AAAHs; type: biochemical, human
Experimental: as §1
TPH1 enzymatic activity assays were performed with the selected hits from the DSF screening in the presence and absence of 50 μM of each compound. The final concentration of DMSO was 0.5% (v/v), and control experiments used 0.5% DMSO in the absence of ligand. Assays were performed in a standard reaction mixture containing 40 mM Hepes pH 7.0, 200 mM NaCl, 0.1 mg/mL catalase, 0.5 mg/mL BSA, 10 μM ferrous ammonium sulfate, and 30 μM L-tryptophan (L-Trp). Compounds were incubated with TPH1 (0.02 mg/mL) in the reaction mixture for 10 min on ice. The enzymatic reaction was initiated by adding 200 μM BH4 and 2 mM DTT (final concentrations) and stopped by precipitation with 2% (v/v) acetic acid in ethanol after 3 min at 37 °C. The product, 5-hydroxy-tryptophan (5-OH-Trp), was quantified by HPLC utilizing a fluorescence monitor set at 302 and 350 nm for excitation and emission, respectively. […]. […]
PAH activities were performed in a standard reaction mixture containing 100 mM Hepes (pH 7.0), 0.04 mg/mL catalase, 0.05% BSA, 10 μM ferrous ammonium sulfate, and 1 mM phenylalanine (Phe). […] The product, L-Tyrosine (L-Tyr), was quantified by HPLC utilizing a fluorescence monitor set at 274 and 304 nm for excitation and emission, respectively. […]

[11] = tested on: serotonin transporter; parameters: method as in PMID 21785940; settings: neuroblastoma cells; cited from earlier work
[12] = tested on: dopamine transporter; parameters: method as in PMID 21785940; settings: neuroblastoma cells; cited from earlier work

IC50 (μM) TH [1]: no inhibition
IC50 ([2]; best-fit IC50 (± SE), nonlinear regression, N.A. = no activity, read-out: IC50 (μM) PAH): 1.55 µM and 1.6 µM
selectivity toward PAH in comparison to TPH1 ([2]; from IC50 values of Table 2): 30 fold
selectivity toward PAH in comparison to TPH2 ([2]; from IC50 values of Table 2): 125 fold
IC50 [3]: 195 µM
ΔTm of endogenous PAH (CETSA) [5]: 4.8 °C
IC50 [7]: 49.6 µM
ΔTm (°C) ± SD (°C), primary screen ([8]; vs averaged Tm of 0.5% DMSO controls): -3.4 ± 0.1 °C
SMILES: O=C(/C=C/c1ccccc1Oc1ccc(Cl)cc1)NO [TB57, (2E)-3-[2-(4-Chlorophenoxy)phenyl]-N-hydroxy-2-propenamide]
IC50 ([4]; ref 6 (10.1002/cmdc.201800238)): 0.15 ± 0.03 µM
IC50 ([6]; ref 6 (10.1002/cmdc.201800238)): 13.4 ± 2.4 µM
IC50 [9]: 11.4 ± 2.5 µM

SMILES: Nc1ccccc1NC(=O)c1ccc(CNc2nccc(-c3cccnc3)n2)cc1 [mocetinostat, reference compound]
IC50 ([4]; ref 2 (PMID: 23829483)): 35 ± 4.4 µM
inhibitory activity against all the AAAHs [10]: completely inactive
IC50 ([6]; ref 2 (PMID: 23829483)): 0.098 ± 0.055 µM
Tm (°C) ± SD (°C), primary screen ([8]; 0.075 mg/mL TPH1, 0.5% DMSO, three independent measurements (a: duplicates)): 54.5 ± 0.2 °C
ΔTm at 50 µM ([8]; vs averaged Tm of 0.5% DMSO controls, read-out: ΔTm (°C) ± SD (°C), primary screen): -0.8 °C

SMILES: CC(/C=C/C(=O)NO)=C\[C@@H](C)C(=O)c1ccc(N(C)C)cc1 [trichostatin A]
increase of serotonin transporter expression [11]: 15 fold
increase of dopamine transporter expression [12]: 45 fold
